US6482921B1, “Uridyl peptide antibiotic (UPA) derivatives, their synthesis and use” (Essential Therapeutics, Inc., priority 1999, dated 2002)
Values after ≈ are worked out from the molar mass of the structure shown.

Legend:
Assay type in all cases: cell-based
[1] = test system: Pseudomonas aeruginosa PAM 1020; assay: MIC broth microdilution, P. aeruginosa PAM 1020 (wild type); conditions: P. aeruginosa PAM 1020
[2] = test system: Pseudomonas aeruginosa PAM 1154; assay: MIC broth microdilution, P. aeruginosa PAM 1154 (OprM::Hg); conditions: P. aeruginosa PAM 1154 OprM::Hg
[3] = test system: Pseudomonas aeruginosa PAM 1135; assay: MIC broth microdilution, P. aeruginosa PAM 1135 (high level UPA resistance); conditions: P. aeruginosa PAM 1135 UPA1^r
[4] = test system: Pseudomonas aeruginosa PAM 1323; assay: MIC broth microdilution, P. aeruginosa PAM 1323 (medium level UPA resistance)
Escherichia Coli MC 4100 = assay: MIC broth microdilution, E. coli MC 4100 (wild type); conditions: E. coli MC 4100
[5] = test system: Escherichia Coli MC 4100 AcrAB; assay: MIC broth microdilution, E. coli MC 4100 AcrAB (ΔAcrAB); conditions: E. coli AcrAB
[6] = test system: Escherichia Coli MC 4100 AcrAB UPA3r; assay: MIC broth microdilution, E. coli MC 4100 AcrAB UPA3r (ΔAcrAB, UPA resistant); conditions: E. coli AcrAB UPA3^r
[7] = test system: Staphylococcus aureus ATCC 29213; assay: MIC broth microdilution, S. aureus ATCC 29213 (wild type); conditions: S. aureus ATCC 29213
[8] = test system: Staphylococcus aureus 8325-4; assay: MIC broth microdilution, S. aureus 8325-4 (wild type); conditions: S. aureus 8325-4
[9] = test system: Pasteurella multocida pm002; assay: MIC broth microdilution, P. multocida pm002 (wild type)

Row | Compound | MIC (μg/ml) Broth microdilution [1] | MIC (μg/ml) Broth microdilution [2] | MIC (μg/ml) Broth microdilution [3] | MIC (μg/ml) Broth microdilution [4] | MIC (μg/ml) Broth microdilution (Escherichia Coli MC 4100) | MIC (μg/ml) Broth microdilution [5] | MIC (μg/ml) Broth microdilution [6] | MIC (μg/ml) Broth microdilution [7] | MIC (μg/ml) Broth microdilution [8] | MIC (μg/ml) Broth microdilution [9]
1 | CC(N)C(=O)N(C)C(C)C(NC(=O)C(Cc1ccc([N+](=O)[O-])cc1)NC(=O)NC(Cc1ccc(O)cc1)C(=O)O)C(=O)NCC1CC(O)C(n2ccc(=O)[nH]c2=O)O1 [Compound 126, 1-[5′-[(2S,3S)-N^3-L-Alanyl-N^2-[N-[[(1S)-1-carboxy-4-hydroxyphenethyl]carbamoyl]-L-4-nitrophenylalanine-N^3-methyl-2,3-diaminobutyramido]-3′,5′-dideoxy-α-L-arabinofuranosyl]uracil] | 128 µg/mL (≈ 158 µM) | 16 µg/mL (≈ 19.7 µM) | >512 µg/mL | >512 µg/mL | 16 µg/mL (≈ 19.7 µM) | <1 µg/mL | 4 µg/mL (≈ 4.93 µM) | 512 µg/mL (≈ 631 µM) | 256 µg/mL (≈ 315 µM) | 512 µg/mL (≈ 631 µM)
2 | C[C@H](N)C(=O)N(C)[C@@H](C)[C@H](NC(=O)[C@H](Cc1ccc(F)c(F)c1)NC(=O)N[C@@H](Cc1c[nH]c2ccccc12)C(=O)O)C(=O)NC[C@H]1C[C@@H](O)[C@H](n2ccc(=O)[nH]c2=O)O1 [Compound 143, 1-[5′-[(2S,3S)-N^3-L-Alanyl-N^2-[N-[[(1S)-1-carboxy-2-indol-3-ylethyl]carbamoyl]-L-(3,4)-difluorophenylalanyl]-N^3-methyl-2,3-diaminobutyramido]-3′,5′-dideoxy-α-L-arabinofuranosyl]uracil] | 128 µg/mL (≈ 155 µM) | 16 µg/mL (≈ 19.4 µM) | >512 µg/mL | >512 µg/mL | 256 µg/mL (≈ 310 µM) | <1 µg/mL | 16 µg/mL (≈ 19.4 µM) | 512 µg/mL (≈ 620 µM) | 256 µg/mL (≈ 310 µM) | 128 µg/mL (≈ 155 µM)
3 | CC(C(NC(=O)C(Cc1ccccc1)NC(=O)NC(Cc1c[nH]c2ccccc12)C(=O)O)C(=O)NCC1CC(O)C(n2ccc(=O)[nH]c2=O)O1)N(C)C(=O)C(N)Cc1ccc(O)cc1 [Compound 163, 1-[5′-[(2S,3S)-N^2-[N-[[(1S)-1-Carboxy-2-indol-3-ylethyl]carbamoyl]-L-phenylalanyl]-N^3-L-tyrosyl-N^3-methyl-2,3-diaminobutyramido]-3′,5′-dideoxy-α-L-arabinofuranosyl]uracil] | 16 µg/mL (≈ 18.1 µM) | 16 µg/mL (≈ 18.1 µM) | 256 µg/mL (≈ 290 µM) | 256 µg/mL (≈ 290 µM) | 512 µg/mL (≈ 581 µM) | 4 µg/mL (≈ 4.54 µM) | 512 µg/mL (≈ 581 µM) | >512 µg/mL | >512 µg/mL | 256 µg/mL (≈ 290 µM)
4 | CC(N)C(=O)N(C)C(C)C(NC(=O)C(Cc1cccs1)NC(=O)NC(Cc1ccc(O)cc1)C(=O)O)C(=O)NCC1CC(O)C(n2ccc(=O)[nH]c2=O)O1 [Compound 119, 1-[5-[(2S,3S)-N^3-L-Alanyl-N^2-[N-[[(1S)-1-carboxy-4-hydroxyphenethyl]carbamoyl]-L-3-(2-thienyl)alanyl]-N^3-methyl-2,3-diaminobutyramido]-3′,5′-dideoxy-α-L-arabinofuranosyl]uracil] | 64 µg/mL (≈ 82.8 µM) | 32 µg/mL (≈ 41.4 µM) | >512 µg/mL | >512 µg/mL | >512 µg/mL | 4 µg/mL (≈ 5.18 µM) | 64 µg/mL (≈ 82.8 µM) | >512 µg/mL | >512 µg/mL | >512 µg/mL
5 | 1-[5′-[(2S,3S)-N^3-L-Alanyl-N^2-[(2R)-2-benzyl-N-[(1S)-1-carboxy-2-indol-3-ylethyl]succinimoyl]-N^3-methyl-2,3-diaminobutyramido]-3′,5′-dideoxy-α-L-arabinofuranosyl]uracil [Compound 154] | 64 µg/mL | 8 µg/mL | >512 µg/mL | >512 µg/mL | >512 µg/mL | 8 µg/mL | 128 µg/mL | >512 µg/mL | >512 µg/mL | >512 µg/mL
6 | CC(N)C(=O)N(C)C(C)C(NC(=O)C(CCc1ccccc1)NC(=O)NC(Cc1c[nH]c2ccccc12)C(=O)O)C(=O)NCC1CC(O)C(n2ccc(=O)[nH]c2=O)O1 [Compound 138, 1-[5′-[(2S,3S)-N^3-L-Alanyl-N^2-[N-[[(1S)-1-carboxy-2-indol-3-ylethyl]carbamoyl]-L-homophenylalanyl]-N^3-methyl-2,3-diaminobutyramido]-3′,5′-dideoxy-α-L-arabinofuranosyl]uracil] | 32 µg/mL (≈ 39.8 µM) | 8 µg/mL (≈ 9.95 µM) | >512 µg/mL | >512 µg/mL | 512 µg/mL (≈ 637 µM) | 2 µg/mL (≈ 2.49 µM) | 256 µg/mL (≈ 318 µM) | >512 µg/mL | >512 µg/mL | >512 µg/mL
7 | 1-[5′[(2S,3S)-N^2-[N-[[(1S)-1-Carboxy-4-hydroxyphenethyl]carbamoyl]-L-4-fluorophenylalanyl)-N^3-L-phenylalanyl-N^3-methyl-2,3-diaminobutyramido]-3′,5′-dideoxy-β-L-arabinofuranosyl]uracil [Compound 106] | 32 µg/mL | 64 µg/mL | 256 µg/mL | 256 µg/mL | 512 µg/mL | 8 µg/mL | 512 µg/mL | >512 µg/mL | >512 µg/mL | 512 µg/mL
8 | CC(C(NC(=O)C(Cc1ccc(F)cc1)NC(=O)NC(Cc1ccc(O)cc1)C(=O)O)C(=O)NCC1CC(O)C(n2ccc(=O)[nH]c2=O)O1)N(C)C(=O)CCCCN [Compound 124, 1-[5′-[(2S,3S)-N^3-(5-Aminopentanoyl)-N^2-[N-[[(1S)-1-carboxy-4-hydroxyphenethyl]carbamoyl]-L-4-fluorophenylalanyl]-N^3-methyl-2,3-diaminobutyramido]-3′,5′-dideoxy-α-L-arabinofuranosyl]uracil] | 512 µg/mL (≈ 630 µM) | 128 µg/mL (≈ 157 µM) | >512 µg/mL | >512 µg/mL | 256 µg/mL (≈ 315 µM) | 2 µg/mL (≈ 2.46 µM) | 128 µg/mL (≈ 157 µM) | >512 µg/mL | >512 µg/mL | >512 µg/mL
9 | CN[C@@H](C)[C@H](NC(=O)[C@H](C)NC(=O)N[C@@H](Cc1c[nH]c2ccccc12)C(=O)O)C(=O)NC[C@H]1C[C@@H](O)[C@H](n2ccc(=O)[nH]c2=O)O1 [Compound 165, 1-[5′-[(2S,3S)-N^2-[N-[[(1S)-1-Carboxy-2-indol-3-ylethyl]carbamoyl]-L-alanyl]-N^3-methyl-2,3-diaminobutyramido]-3′,5′-dideoxy-α-L-arabinofuranosyl]uracil] | >512 µg/mL | 128 µg/mL (≈ 199 µM) | >512 µg/mL | >512 µg/mL | >512 µg/mL | 4 µg/mL (≈ 6.22 µM) | 128 µg/mL (≈ 199 µM) | >512 µg/mL | >512 µg/mL | 256 µg/mL (≈ 398 µM)
